# Results as given in ChEMBL document CHEMBL1944552, “Pharmacophore-based discovery of a novel cytosolic phospholipase A(2)α inhibitor” (Bioorg Med Chem Lett, 2012).
# Assays:
# [1] = Aqueous solubility of the compound at >10 uM; format: physicochemical; details: buffer
# [2] = Inhibition of human recombinant His-tagged cPLA2alpha expressed in baculovirus-infected Sf9 cells assessed as residual activity at 10 uM after 1 hr by RP-HPLC analysis
# [3] = Inhibition of cPLA2alpha
# [4] = Inhibition of cPLA2alpha-mediated [3H]-arachidonic acid release in Ca2+ ionophore A23187-stimulated human monocytes preincubated for 15 mins prior Ca2+ ionophore A23187 stimulation measured after 5 mins by scintillation counting
# [5] = Inhibition of human recombinant His-tagged cPLA2alpha expressed in baculovirus-infected Sf9 cells after 1 hr by RP-HPLC analysis
Structure (SMILES),solubility [1],Activity [2] [%],further results
CCCCCCCCCCCCCCCc1nnc(SCC(=O)O)[nH]1,Insoluble,85.1,
CCCCCCCCCCCCCCCCOc1ccc(C(=O)O)cc1,Insoluble,88.4,
CCCCCCCCCCCCCCCC1=NN(c2ccc(S(=O)(=O)O)cc2)C(=O)C1/N=N/c1ccccc1 (centres undefined),Insoluble,77.1,
Cc1cc(-c2ccc(/N=N/c3c(S(=O)(=O)O)cc4cc(S(=O)(=O)O)cc(N)c4c3O)c(C)c2)ccc1/N=N/c1ccc2c(S(=O)(=O)O)ccc(N)c2c1O,Insoluble,87.5,
O=C(COc1ccc(SCCCCCc2ccccc2)cc1)COc1ccc(C(=O)O)cc1,,,IC50 [3]: 0.004 µM
O=C(COc1ccc(SCCCCSc2nccs2)cc1)COc1ccc(C(=O)O)cc1,,,IC50 [3]: 0.76 µM
CCCCCCCCCCCCCCCCOc1ccc(C(=O)O)cc1NC(=O)/C(=N/O)C(C)=O,,,IC50 [4]: 5 µM; IC50 [5]: 4 µM
O=C(COc1ccc(C(=O)O)cc1)COc1ccc(C(=O)NCCCCc2ccccc2)cc1,,,IC50 [3]: 20 µM
Cn1ccnc1SCCCCOc1ccc(OCC(=O)COc2ccc(C(=O)O)cc2)cc1,,,IC50 [3]: 63 µM
COc1cc(/N=N/c2ccc3cc(S(=O)(=O)O)cc(S(=O)(=O)O)c3c2)ccc1/N=N/c1ccc(NC(=O)c2ccc(NC(=O)c3ccccc3)cc2)cc1C,Insoluble,62.7,
Cc1cc(N)ccc1/N=N/c1ccc(/N=N/c2ccc(/N=N/c3ccc4cc(S(=O)(=O)O)cc(S(=O)(=O)O)c4c3)c(C)c2)c(C)c1,Insoluble,81.9,
CCCCCCCCCCCCCCCCN(C)c1ccc(S(=O)(=O)O)cc1[N+](=O)[O-],Insoluble,61.4,
CN(CCc1ccccc1)C(=O)CSc1ccc(OCC(=O)COc2ccc(C(=O)O)cc2)cc1,,,IC50 [3]: 34 µM
CCCCCCCCCCCCCCCCCC1=NCCN1CS(=O)(=O)O,Insoluble,94.7,
CCCCCCCCCCCCCCCCCC1=NCCN1CCN(CS(=O)(=O)O)CS(=O)(=O)O,Insoluble,106,
CCCCCCCCCCCCCCCc1cc(=O)n(-c2ccc(NC(=O)/C=C/C(=O)O)cc2)n1C,Insoluble,92.6,
CCCCCCCCCCCCCCCCOc1ccc(S(=O)(=O)N/N=c2/sc3ccc(S(=O)(=O)O)cc3n2C)cc1C(=O)O,Insoluble,70.2,
